Here are results for six molecules from US5008252A, “Process for inhibiting herpes simplex virus-specified thymidine kinase” (The University of North Carolina at Chapel Hill, priority 1987, dated 1991).

The assay relates to HSV-1 (strain KOS)-infected HeLa BU cells. The assay is described as follows: Virus yield assay. The assay is classed as cell-based. The following applies: for reversal of antiviral activity by 5'-Et-dThd: 100 μM 5'-Et-dThd, ACV 15 μM, DHPG 2 μM, FIAC 1 μM, BVDU 1 μM, 5'-NH2-dThd 500 μM; for % PFU with a 5'-Et-dThd conc. of 2.5 μM: drug (μM as in row; None = 5'-Et-dThd alone) plus 2.5 μM 5'-Et-dThd; for % PFU with a 5'-Et-dThd conc. of 25 μM: drug (μM as in row; None = 5'-Et-dThd alone) plus 25 μM 5'-Et-dThd; for % PFU with a 5'-Et-dThd conc. of 0 μM: drug alone, drug μM in parentheses in row: ACV 15, FIAC 1, DHPG 2, BVDU 1, 5'-NH2-dThd 500. As to the method: Cell and virus growth inhibition. Cell growth inhibition and the virus yield assay were performed in accordance with the protocol described by Cheng, Y.-C., Grill, S.P., Ruth, J. and Bergstrom, D. E. (Antimicrob. Agents Chemother. 18:957-961 (1980)) with the exceptions that all studies were done using 5% dialyzed fetal bovine serum; the multiplicity of infection was 3 PFU/cell and Vero cells were used instead of CV-1 cells for titration in the virus yield assays.

Setting [1] is: Table II, drug (μM as in row; None = 5'-Et-dThd alone) plus 100 μM 5'-Et-dThd.

For the molecule `Cc1cn([C@H]2C[C@H](O)[C@@H](CN)O2)c(=O)[nH]c1=O` [5'-NH2-dThd, 5'-amino-dThd], the “reversal of antiviral activity by 5'-Et-dThd” value (shortened to “reversal of antiviral activity”) is 250 fold. Where the note is “Table II”, the “% PFU with a 5'-Et-dThd conc. of 2.5 μM” value is on record as 0.3%, the “% PFU with a 5'-Et-dThd conc. of 25 μM” value is 3% and the “% PFU with a 5'-Et-dThd conc. of 0 μM” value stood at 0.2%. Moreover, the “% PFU with a 5'-Et-dThd conc. of 100 μM” value under setting [1] is 50%.

As to `Nc1nc2c(ncn2COCCO)c(=O)[nH]1` [ACV, acyclovir], the “reversal of antiviral activity” value is listed as 35 fold. In addition, for the setting “Table II”, the “% PFU with a 5'-Et-dThd conc. of 2.5 μM” value is given as 9%, the “% PFU with a 5'-Et-dThd conc. of 25 μM” value is 45% and the “% PFU with a 5'-Et-dThd conc. of 0 μM” value is 2%. The “% PFU with a 5'-Et-dThd conc. of 100 μM” value under setting [1] is 70%.

On to `C[C@@]1(CO)[C@H](O)CC[C@@]2(C)[C@H]1CC[C@H]1C[C@@H]3C[C@@]12CC[C@]3(O)CO` [Aphidicolin, aphidicolin], for which the “% PFU with 100 μM 5'-Et-dThd relative to aphidicolin alone” value (0.2 μM aphidicolin plus 100 μM 5'-Et-dThd) is “less than one half”. For the same molecule, where the note is “Human alphaherpesvirus 1, HeLa, read-out: %PFU with a 5'-Et-dThd conc. of 0 μM”, the activity at 0.2 µM amounted to 54%. Further, under “Table III, aphidicolin 0.2 μM (None = 5'-Et-dThd alone) plus 5 μM 5'-Et-dThd”, the “%PFU with a 5'-Et-dThd conc. of 5 μM” value is listed as 65%. In addition, the “%PFU with a 5'-Et-dThd conc. of 20 μM” value (Table III, aphidicolin 0.2 μM (None = 5'-Et-dThd alone) plus 20 μM 5'-Et-dThd) was found to be 45%. Besides, the “% PFU with a 5'-Et-dThd conc. of 100 μM” value (Table III, aphidicolin 0.2 μM (None = 5'-Et-dThd alone) plus 100 μM 5'-Et-dThd) is reported as 21%.

As to `O=c1[nH]c(=O)n([C@H]2C[C@H](O)[C@@H](CO)O2)cc1/C=C/Br` [BVDU, (E)-5-(2-bromovinyl)-2'-deoxyuridine], the “reversal of antiviral activity” value was found to be 15 fold. For the same molecule, where the note is “Table II”, the “% PFU with a 5'-Et-dThd conc. of 2.5 μM” value amounted to 9.5%, the “% PFU with a 5'-Et-dThd conc. of 25 μM” value was determined as 13% and the “% PFU with a 5'-Et-dThd conc. of 0 μM” value is listed as 0.9%.

As to `Nc1nc2c(ncn2COC(CO)CO)c(=O)[nH]1` [DHPG, 9-(1,3-dihydroxy-2-propoxymethyl) guanine], the “reversal of antiviral activity” value stood at 100 fold. Further, under “Table II”, the “% PFU with a 5'-Et-dThd conc. of 2.5 μM” value is given as 0.2%, the “% PFU with a 5'-Et-dThd conc. of 25 μM” value is 4% and the “% PFU with a 5'-Et-dThd conc. of 0 μM” value is given as 0.1%. In addition, the “% PFU with a 5'-Et-dThd conc. of 100 μM” value under setting [1] is 10%.

Regarding `Nc1nc(=O)n([C@@H]2O[C@H](CO)[C@@H](O)[C@@H]2F)cc1I` [FIAC, fluoroido-arabinosyl-cytosine], the “reversal of antiviral activity” value is on record as 98 fold. Where the note is “Table II”, the “% PFU with a 5'-Et-dThd conc. of 2.5 μM” value turned out to be 26%, the “% PFU with a 5'-Et-dThd conc. of 25 μM” value amounted to 59% and the “% PFU with a 5'-Et-dThd conc. of 0 μM” value is 0.6%.
